From patent publication EP4389762A1, “INHIBITORS OF DUX4 ACTIVITY AND THEIR USE IN THERAPY” (Ospedale San Raffaele S.r.l., priority 2022, dated 2024)
Each block holds one molecule with its values, some of them ahead of it.

Tests used:
[1] = target: T1, DUX4 dbd (Homo sapiens, UniProt Q9UBX2); experiment: His pull-down assay; assay type: binding; conditions: purified His-DUX4 dbd immobilized, biotinylated MATR3 peptides
T1 construct: employing pETGB1-6xHis-DUX4 dbd (residues 1-159) vector as template; GB1; made in house; host or cells: E. coli Rosetta2(DE3) pLys
Protocol: To test the interaction between 6xHis-DUX4 dbd and MATR3 synthetic peptides (prepared by CASLO; Lot No.: P230321-01-01, P230321-01-02, Lot No.: P230321-01-03), 40 pmol of 6xHis-DUX4 dbd were immobilized on His-Select Nickel Affinity gel beads (Sigma) incubating 1 hour on rotation at 4°C in IPP100 buffer (10 mM Tris-HCl pH 8.00, 100 mM NaCl, 0.1% NP-40) supplemented with 0,1 mM PMSF. Next, 4 pmol of MATR3 synthetic peptides were added incubating on rotation for 2 hours at 4°C. MATR3 peptides were incubated with the beads as negative control. Beads were washed 4 times with IPP100 buffer, boiled in 50 µl of Laemmli Sample Buffer (Bio-Rad), centrifuged and the eluted proteins were collected. Samples were stored at -20°C. Pull-down samples were boiled at 95°C for 5 minutes and bounded fractions (10%) were loaded on 15% SDS-Page acrylamide gel. The immunoblotting was performed following the procedure reported above but the wet transfer was performed at 200mA for 1.5 hours (instead of 2 hours) at 4°C. To test the interaction between DUX4 dbd and 6xHis-SUM03-MATR3(210-255), 40 pmol of 6xHis-SUMO3-MATR3(210-255) were immobilized on His-Select Nickel Affinity gel beads (Sigma) incubating 1 hour on rotation at 4°C in IPP100 buffer (10 mM Tris-HCl pH 8.00, 100 mM NaCl, 0.1% NP-40) supplemented with 0,1 mM PMSF. Next, 40 pmol of DUX4(15-155) without tag were added incubating on rotation for 2 hours at 4°C. DUX4(15-155) alone was incubated with the beads as negative control. Beads were washed 4 times with IPP100 buffer, boiled in 50 µl of Laemmli Sample Buffer (Bio-Rad), centrifuged and the eluted proteins were collected. Samples were stored at -20°C. Pull-down samples were boiled at 95°C for 5 minutes and bounded fractions (10%) were loaded on two identical 15% SDS-Page acrylamide gel. The immunoblotting was performed following the procedure reported below.

[2] = target: T2, 6xHis-DUX4 dbd (UniProt Q9UBX2 1-159); experiment: GST pull-down with purified recombinant proteins
T2 construct: range 1-159; Expressed in E. coli from pET-GB1 and purified on nickel beads; The limits 1-159 come from the phrase pETGB1-6xHis-DUX4 dbd (residues 1-159); also called DUX4 dbd (HD1+HD2); not shown: 6xHis tag and GB1 solubility peptide of vector pET-GB1
T2 sequence (Q9UBX2 1-159): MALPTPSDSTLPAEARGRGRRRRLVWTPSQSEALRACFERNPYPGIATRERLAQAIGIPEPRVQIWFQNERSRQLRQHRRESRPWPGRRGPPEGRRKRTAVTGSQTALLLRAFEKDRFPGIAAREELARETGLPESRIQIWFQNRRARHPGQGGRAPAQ

T1 sequence (Q9UBX2 1-159): as above

Molecule: (Biotin)- ERCRDDSFFGETSHNYHKFDSEYERMGRGPG PLQERSLFEKKRGAPPSSNIEDFHGLLPK -NH2 [Peptide 3]
interaction with DUX4 dbd (pulldown, synthetic peptides) [1]: interacted with DUX4 dbd | interaction with DUX4 dbd (pulldown, synthetic peptides) ([1]; listed as Pep 3): interact with DUX4 dbd

Molecule: (Biotin)- SFDDRGPSLNPVLDYDHGSRSQESGYYDRMD YEDDRLRDGERCRDDSFFGETSHNYHKFDS-NH2 [Peptide 2]
interaction with DUX4 dbd (pulldown, synthetic peptides) [1]: interacted with DUX4 dbd | interaction with DUX4 dbd (pulldown, synthetic peptides) ([1]; listed as Pep 2): interact with DUX4 dbd

binding result [2]: no binding (tested: 40 pmol each)
B1: GST-MATR3(2-151) (other)
chain: SKSFQQSSLSRDSQGHGRDLSAAGIGLLAAATQSLSMPASLGRMNQGTARLASLMNLGMSSSLNQQGAHSALSSASTSSHNLQSIFNIGSRGPLPLSSQHRGDADQASNILASFGLSARDLDELSRYPEDKITPENLPQILLQLKRRRTE
notes: not shown: GST tag and thrombin site of vector pGEX-2tk
